A word on the EC50: it is the concentration that produces a half-maximal response.

Like-named read-outs stand apart in the source and are kept apart here.

EC50 data for two compounds are collected here from article PMC8824665, “Rapid Assessment of Insect Steroid Hormone Entry Into Cultured Cells” (Frontiers in Physiology, 2022).

In the assay the target is T1, EcR-RXR (EcR-LgBiT / RXR-SmBiT) (Drosophila melanogaster, UniProt P34021).
T1 construct: full-length EcR with C-terminal LgBiT (pFC34K-EcR) and RXR with C-terminal SmBiT (pFC36K-RXR), expressed in HEK293T cells; heterodimer; probably human RXR-alpha
T1 sequence (P34021 1-878): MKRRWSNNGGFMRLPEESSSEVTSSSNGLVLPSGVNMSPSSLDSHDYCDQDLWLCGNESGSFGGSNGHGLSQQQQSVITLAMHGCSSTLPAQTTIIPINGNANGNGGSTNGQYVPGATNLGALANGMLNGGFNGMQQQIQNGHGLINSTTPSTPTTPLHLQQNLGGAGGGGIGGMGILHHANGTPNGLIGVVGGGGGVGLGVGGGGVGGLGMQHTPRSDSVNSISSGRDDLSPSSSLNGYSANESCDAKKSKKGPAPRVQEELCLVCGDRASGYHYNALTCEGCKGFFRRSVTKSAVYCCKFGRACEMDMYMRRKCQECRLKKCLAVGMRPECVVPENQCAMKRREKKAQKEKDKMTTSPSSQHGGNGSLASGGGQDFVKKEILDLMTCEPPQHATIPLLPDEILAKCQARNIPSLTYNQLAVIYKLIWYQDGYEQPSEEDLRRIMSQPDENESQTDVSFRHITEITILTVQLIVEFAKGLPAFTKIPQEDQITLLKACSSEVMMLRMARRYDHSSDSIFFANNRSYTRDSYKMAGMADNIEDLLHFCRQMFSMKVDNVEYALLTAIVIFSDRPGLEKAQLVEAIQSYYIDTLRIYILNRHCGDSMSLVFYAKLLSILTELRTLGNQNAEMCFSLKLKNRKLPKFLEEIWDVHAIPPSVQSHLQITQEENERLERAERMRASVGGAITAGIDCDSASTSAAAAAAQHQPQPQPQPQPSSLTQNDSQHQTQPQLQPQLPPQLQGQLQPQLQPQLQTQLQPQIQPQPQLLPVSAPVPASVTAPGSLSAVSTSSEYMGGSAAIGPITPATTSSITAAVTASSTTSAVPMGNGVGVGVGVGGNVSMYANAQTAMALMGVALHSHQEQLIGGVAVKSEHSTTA
T1 sequence (P19793 1-462 partner): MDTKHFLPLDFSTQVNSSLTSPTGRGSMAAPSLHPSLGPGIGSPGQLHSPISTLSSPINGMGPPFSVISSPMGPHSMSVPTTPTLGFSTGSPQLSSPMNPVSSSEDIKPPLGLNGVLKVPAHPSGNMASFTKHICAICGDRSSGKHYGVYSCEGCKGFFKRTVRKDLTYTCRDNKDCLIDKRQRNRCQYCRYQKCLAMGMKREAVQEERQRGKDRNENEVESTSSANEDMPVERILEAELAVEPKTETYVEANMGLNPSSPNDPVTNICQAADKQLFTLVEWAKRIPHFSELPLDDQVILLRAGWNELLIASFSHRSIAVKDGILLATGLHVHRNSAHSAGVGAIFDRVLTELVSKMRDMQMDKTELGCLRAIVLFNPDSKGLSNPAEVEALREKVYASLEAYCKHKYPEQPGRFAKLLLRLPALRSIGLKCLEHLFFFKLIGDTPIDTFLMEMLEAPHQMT
The experiment in a line: NanoBiT split-luciferase assay of ligand-induced EcR-RXR heterodimerization in live HEK293T cells. Type of assay: cell-based.

For `CC(C)(O)CC[C@@H](O)[C@](C)(O)[C@H]1CC[C@@]2(O)C3=CC(=O)[C@@H]4C[C@@H](O)[C@@H](O)C[C@]4(C)[C@H]3CC[C@]12C` [20E, 20-hydroxyecdysone], where the note is “read-out: EC50”, the EC50 is 2.2 µM.

Consider `Cc1cc(C)cc(C(=O)N(NC(=O)c2ccc3c(c2C)CCCO3)C(C)(C)C)c1` [CF, chromafenozide], for which the midpoint of the response, the EC50, lay at 4.76 µM.
